Assay [1] has as its target T1, IRAK4 (Homo sapiens (Human), UniProt Q9NWZ3). The experiment in a line: Biochemical Z'-Lyte FRET assay for IRAK4 kinase inhibition. The conditions noted are these: 2 nM enzyme, 1 mM ATP, 2 μM substrate. In short, it runs like this:
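Z′-Lyte FRET phosphorylation of Ser/Thr 7 peptide (2 µM) by 2 nM recombinant IRAK4 at 1 mM ATP in HEPES pH 7.5 with MgCl2/MnCl2, after 10 min enzyme–compound preincubation; 1 h at room temperature, then 1 h development, 460/530 nm emission. Duplicate 12-point, 3-fold curves from 30 µM; IC50 from percent inhibition against ±100% controls.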

In assay [2] the target is T1, IRAK4. Kind of assay: Western blot assay for assessing degradation of IRAK4 in MCF7 cells. The class given is cell-based. In short, it runs like this:
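MCF7 cells were treated 24 h with serially diluted compound (0.1% DMSO final), then lysed in RIPA. IRAK4 and IRAK1 levels were measured by western blot with β-actin probed alongside. Percent degradation compared compound-treated with DMSO-treated lysates.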

Setting [3] is: Table 5, IRAK4 degradation, 24 hour incubation, read-out: IRAK4 DC50.

Read-outs that look alike come from different tables or passages of the source.

T1 sequence (Q9NWZ3 whole entry): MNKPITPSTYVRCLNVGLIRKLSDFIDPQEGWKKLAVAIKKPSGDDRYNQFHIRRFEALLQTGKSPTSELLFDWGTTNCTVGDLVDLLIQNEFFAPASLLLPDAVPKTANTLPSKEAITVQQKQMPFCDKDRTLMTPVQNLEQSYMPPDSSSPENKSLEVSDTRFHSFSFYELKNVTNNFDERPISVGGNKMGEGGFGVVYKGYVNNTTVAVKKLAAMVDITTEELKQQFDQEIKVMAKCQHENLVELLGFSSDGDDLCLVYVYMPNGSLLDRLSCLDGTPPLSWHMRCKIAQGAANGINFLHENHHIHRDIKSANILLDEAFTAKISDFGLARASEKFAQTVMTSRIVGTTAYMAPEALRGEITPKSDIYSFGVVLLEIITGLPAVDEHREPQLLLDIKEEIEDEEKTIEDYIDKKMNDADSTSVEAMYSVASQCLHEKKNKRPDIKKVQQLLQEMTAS

`O=C1CCC(N2C(=O)c3ccc(OCCOCCN4CCN(Cc5ccc6c(c5)nc(NC(=O)c5cccc(C(F)(F)F)c5)n6[C@H]5CC[C@@H](CO)CC5)CC4)cc3C2=O)C(=O)N1` (some centres unmarked) [compound 2, N-(5-((4-(2-(2-((2-(2,6-dioxopiperidin-3-yl)-1,3-dioxoisoindolin-5-yl)oxy)ethoxy)ethyl)piperazin-1-yl)methyl)-1-((1s,4s)-4-(hydroxymethyl)cyclohexyl)-1H-benzo[d]imidazol-2-yl)-3-(trifluoromethyl)benzamide] yielded an IC50 against IRAK4 [1] of less than 0.03 µM. Besides, the DC50 on IRAK4 [2] (Table 1, 24 hours, read-out: IRAK4 by western DC50) is 0.01 µM; on IRAK4 [2] (setting [3]), less than 0.03 µM; on IRAK4 [2] (western blot, 24 hour incubation, read-out: DC50 (IRAK4 degradation)) it was 0.0097 µM.

The compound `N#Cc1ccc2ncnc(N[C@H]3CC[C@H](N4CCN(CCOCCOCCOCCOc5ccc6c(c5)C(=O)N(C5CCC(=O)NC5=O)C6=O)CC4)CC3)c2c1` (some centres unmarked) [compound 32] came in with an IC50 against IRAK4 [1] of no less than 1 µM. The DC50 on IRAK4 [2] (setting [3]) is no less than 1 µM.

Regarding `Cc1ncsc1-c1ccc(CNC(=O)[C@@H]2C[C@@H](O)CN2C(=O)[C@@H](NC(=O)COCCOCCOCCOCCN2CCN(Cc3ccc4c(c3)nc(NC(=O)c3cccc(C(F)(F)F)c3)n4C3CCC(CO)CC3)CC2)C(C)(C)C)cc1` (mixture of isomers) [compound 14, (2S,4R)-1-((S)-2-(tert-butyl)-17-(4-((1-((1SR,4SR)-4-(hydroxymethyl)cyclohexyl)-2-(3-(trifluoromethyl)benzamido)-1H-benzo[d]imidazol-5-yl)methyl)piperazin-1-yl)-4-oxo-6,9,12-tetraoxa-3-azatetradecanoyl)-4-hydroxy-N-(4-(4-methylthiazol-5-yl)benzyl)pyrrolidine-2-carboxamide], at IRAK4 [1], the IC50 is less than 0.03 µM. Moreover, the DC50 on IRAK4 [2] (setting [3]) is no less than 1 µM.

At IRAK4 [1], `N#Cc1ccc2ncnc(N[C@H]3CC[C@H](N4CCN(CCOCCOCCOCCOCCOc5ccc6c(c5)C(=O)N(C5CCC(=O)NC5=O)C6=O)CC4)CC3)c2c1` (some centres unmarked) [compound 33] showed a half-maximal inhibitory concentration (IC50) of no less than 1 µM. Besides, the DC50 at IRAK4 [2] (setting [3]) was no less than 1 µM.

In the case of `CN(CCOCCOc1ccc2c(c1)C(=O)N(C1CCC(=O)NC1=O)C2=O)c1cccc(-n2c(NC(=O)c3cccc(C(F)(F)F)c3)nc3cc(F)ccc32)c1` (centres unmarked) [compound 51, N-(1-(3-((2-(2-((2-(2,6-dioxopiperidin-3-yl)-1,3-dioxoisoindolin-5-yl)oxy)ethoxy)ethyl)(methyl)amino)phenyl)-5-fluoro-1H-benzo[d]imidazol-2-yl)-3-(trifluoromethyl)benzamide], the IC50 on IRAK4 [1] is no less than 1 µM. The DC50 at IRAK4 [2] (setting [3]) was no less than 1 µM.

In turn, `Cc1ccc(-n2nc(N3CCN(CCOCCOCCOCC(=O)N[C@H](C(=O)N4C[C@H](O)C[C@H]4C(=O)NCc4ccc(-c5scnc5C)cc4)C(C)(C)C)CC3)cc2NC(=O)c2cnn3cccnc23)nc1` [compound 27, N-(3-(4-((S)-13-((2S,4R)-4-hydroxy-2-((4-(4-methylthiazol-5-yl)benzyl)carbamoyl)pyrrolidine-1-carbonyl)-14,14-dimethyl-11-oxo-3,6,9-trioxa-12-azapentadecyl)piperazin-1-yl)-1-(5-methylpyridin-2-yl)-1H-pyrazol-5-yl)pyrazolo[1,5-a]pyrimidine-3-carboxamide] showed an IC50 against IRAK4 [1] of 0.3 to 1 µM. For the same compound, the DC50 at IRAK4 [2] (setting [3]) is no less than 1 µM.

On to `N#Cc1ccc2ncnc(N[C@H]3CC[C@@H](N4CCN(S(=O)(=O)CCOCCOCCOCCOCCOc5ccc6c(c5)C(=O)N(C5CCC(=O)NC5=O)C6=O)CC4)CC3)c2c1` (some centres unmarked) [compound 41], for which, on IRAK4 [1], the IC50 was no less than 1 µM. Moreover, the DC50 on IRAK4 [2] (setting [3]) was no less than 1 µM.

The compound `O=C1CCC(N2C(=O)c3ccc(OCCN4CCN(Cc5ccc6c(c5)nc(NC(=O)c5cccc(C(F)(F)F)c5)n6-c5ccccc5)CC4)cc3C2=O)C(=O)N1` (centres unmarked) [compound 55, N-(5-((4-(2-((2-(2,6-dioxopiperidin-3-yl)-1,3-dioxoisoindolin-5-yl)oxy)ethyl)piperazin-1-yl)methyl)-1-phenyl-1H-benzo[d]imidazol-2-yl)-3-(trifluoromethyl)benzamide] yielded an IC50 on IRAK4 [1] of no less than 1 µM. Also, the DC50 at IRAK4 [2] (setting [3]) is no less than 1 µM.

`N#Cc1ccc2ncnc(N[C@H]3CC[C@H](N4CCN(CCOCCOCCOc5ccc6c(c5)C(=O)N(C5CCC(=O)NC5=O)C6=O)CC4)CC3)c2c1` (some centres unmarked) [compound 31]: the IC50 at IRAK4 [1] was no less than 1 µM. Besides, the DC50 on IRAK4 [2] (setting [3]) was no less than 1 µM.

The values are drawn from patent publication US11065231B2, “Compounds and methods for the targeted degradation of interleukin-1 receptor- associated kinase 4 polypeptides” (Arvinas Operations, Inc., priority 2017, dated 2021).
